The results in this text go back to patent US20110053916A1 (Vertex Pharmaceuticals Incorporated, priority 2009, published 2011).

A word on the Ki: it is the equilibrium dissociation constant of an inhibitor or competing ligand from its target.

SMILES strings stand for the structures.

The target of one experiment is T1, PknB (Mycobacterium tuberculosis, UniProt P9WI81).
T1 construct: made in house
T1 sequence (P9WI81 whole entry): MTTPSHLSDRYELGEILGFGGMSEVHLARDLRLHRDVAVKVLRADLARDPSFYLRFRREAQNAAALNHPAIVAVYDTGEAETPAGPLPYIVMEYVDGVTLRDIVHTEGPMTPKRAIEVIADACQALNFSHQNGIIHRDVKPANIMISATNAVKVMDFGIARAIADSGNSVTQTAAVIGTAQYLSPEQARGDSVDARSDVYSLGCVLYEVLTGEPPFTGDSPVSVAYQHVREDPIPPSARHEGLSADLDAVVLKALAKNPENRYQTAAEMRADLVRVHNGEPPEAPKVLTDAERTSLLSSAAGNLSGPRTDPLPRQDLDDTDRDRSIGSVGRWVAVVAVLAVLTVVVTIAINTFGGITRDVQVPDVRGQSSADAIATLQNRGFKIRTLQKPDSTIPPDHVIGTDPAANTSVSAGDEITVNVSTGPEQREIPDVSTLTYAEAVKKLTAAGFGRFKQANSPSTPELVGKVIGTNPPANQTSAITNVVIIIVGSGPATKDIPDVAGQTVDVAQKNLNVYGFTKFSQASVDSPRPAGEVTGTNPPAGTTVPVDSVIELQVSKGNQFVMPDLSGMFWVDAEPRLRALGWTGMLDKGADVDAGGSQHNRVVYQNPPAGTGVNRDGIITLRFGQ
Nature of the experiment: biochemical. More on the design: species or system M. tuberculosis. Particulars: 3 nM PknB, 6 uM GarA, 3 μM ATP, 30 min; competitive tight-binding fit; several symbols in a cell = repeat determinations.
Consider `C#Cc1cnc(-c2ccc([C@@H](O)CCC)s2)nc1Nc1cc(C2CC2)n[nH]1` (stereo in doubt) [Compound 211, 1-[5-[4-[(5-cyclopropyl-2H-pyrazol-3-yl)amino]-5-ethynyl-pyrimidin-2-yl]-2-thienyl]butan-1-ol], for which the “Ki Values” is recorded as “A**, A*, A*”. On the same count and under the same terms, the same measure for `CS(=O)(=O)c1ccc(-c2ncc(Cl)c(Nc3cc(C4CC4)[nH]n3)n2)cc1` [Compound 23, 5-chloro-N-(5-cyclopropyl-1H-pyrazol-3-yl)-2-(4-methylsulfonylphenyl)-pyrimidin-4-amine]: “A, B**”. Consider `c1cc(Nc2cc(C3CC3)[nH]n2)nc(N2CCC(N3CCCCC3)CC2)n1` [Compound 65, N-(5-cyclopropyl-1H-pyrazol-3-yl)-2-[4-(1-piperidyl)-1-piperidyl]-pyrimidin-4-amine], for which the “Ki Values” was “C, D, D”. On the same count and under the same terms, the same measure for `NS(=O)(=O)c1ccc(-c2ncc(CCO)c(Nc3cc(C4CC4)[nH]n3)n2)s1` [Compound 239, 5-(4-(5-cyclopropyl-1H-pyrazol-3-ylamino)-5-(2-hydroxyethyl)pyrimidin-2-yl)thiophene-2-sulfonamide]: “A*, B**”; for `N#Cc1cc(Nc2cc(C3CC3)n[nH]2)nc(-c2ccc(S(N)(=O)=O)s2)n1` [Compound 295, 5-[4-cyano-6-[(5-cyclopropyl-2H-pyrazol-3-yl)amino]-pyrimidin-2-yl]thiophene-2-sulfonamide]: “A**, B**”; for `CC(O)c1cnc(-c2ccc(S(=O)(=O)NC(C)(C)C)s2)nc1Nc1cc(C2CC2)[nH]n1` (stereo not drawn) [Compound 208, 5-[4-[(5-cyclopropyl-1H-pyrazol-3-yl)amino]-5-(1-hydroxyethyl)pyrimidin-2-yl]-N-tert-butyl-thiophene-2-sulfonamide]: “B**, B**, B*, B”.

The experiment is the same for the next values; noted with them: 3 nM PknB, 6 uM GarA, 3 μM ATP, 30 min; competitive tight-binding fit; several symbols in a cell = repeat determinations; read-out: Ki Values.
Take `NS(=O)(=O)c1cccc(-c2ncc(Cl)c(Nc3cc(C4CC4)[nH]n3)n2)c1` [Compound 30, 3-[5-chloro-4-[(5-cyclopropyl-1H-pyrazol-3-yl)amino]-pyrimidin-2-yl]benzenesulfonamide]: the Ki fell in the range of 0.01 to 0.05 µM.

Consider `CC(C)(C)NS(=O)(=O)c1ccc(-c2ncc(CO)c(Nc3cc(C4CC4)[nH]n3)n2)s1` [Compound 163, N-tert-butyl-5-(4-(5-cyclopropyl-1H-pyrazol-3-ylamino)-5-(hydroxymethyl)pyrimidin-2-yl)thiophene-2-sulfonamide], for which the Ki lay within 0.1 to 0.5 µM. The same measure, in the same setting: with `Nc1cccc(Nc2nccc(Nc3cc(C4CC4)n[nH]3)n2)c1` [Compound 100, N-(3-aminophenyl)-N′-(5-cyclopropyl-2H-pyrazol-3-yl)-pyrimidine-2,4-diamine] the figure was 0.1 to 0.5 µM; with `C#Cc1cnc(N2CCN(C)CC2)nc1Nc1cc(C2CC2)[nH]n1` [Compound 177, N-(5-cyclopropyl-1H-pyrazol-3-yl)-5-ethynyl-2-(4-methylpiperazin-1-yl)-pyrimidin-4-amine], 2 to 4 µM; with `O=S(=O)(NC1CCOC1)c1ccc(-c2ncc(Cl)c(Nc3cc(C4CC4)[nH]n3)n2)s1` (stereo not drawn) [Compound 152, 5-[5-chloro-4-[(5-cyclopropyl-1H-pyrazol-3-yl)amino]-pyrimidin-2-yl]-N-tetrahydrofuran-3-yl-thiophene-2-sulfonamide], 0.01 to 0.05 µM. `CC(=O)c1sc(-c2ncc(Cl)c(Nc3cc(C4CC4)[nH]n3)n2)nc1C` [Compound 297, 1-(2-(5-Chloro-4-(5-cyclopropyl-1H-pyrazol-3-ylamino)pyrimidin-2-yl)-4-methylthiazol-5-yl)ethanone]: the inhibition constant Ki was 0.01 to 0.05 µM.

Regarding `C#Cc1cnc(-c2ccc(CC#N)s2)nc1Nc1cc(C2CC2)n[nH]1` [Compound 130, 2-(5-(4-(3-Cyclopropyl-1H-pyrazol-5-ylamino)-5-ethynylpyrimidin-2-yl)thiophen-2-yl)acetonitrile], the Ki was 0.001 to 0.01 µM. On the same count and under the same terms, with `NCCNS(=O)(=O)c1ccc(-c2ncc(Cl)c(Nc3cc(C4CC4)[nH]n3)n2)s1` [Compound 75, N-(2-aminoethyl)-5-(5-chloro-4-(5-cyclopropyl-1H-pyrazol-3-ylamino)pyrimidin-2-yl)thiophene-2-sulfonamide] the figure was 0.001 to 0.01 µM; with `C#Cc1cnc(N2CCNCC2)nc1Nc1cc(C2CC2)n[nH]1` [Compound 175], 2 to 4 µM; with `NS(=O)(=O)c1ccc(-c2ncc(/C=C/CO)c(Nc3cc(C4CC4)[nH]n3)n2)s1` [Compound 281, (E)-5-(4-(5-cyclopropyl-1H-pyrazol-3-ylamino)-5-(3-hydroxyprop-1-enyl)pyrimidin-2-yl)thiophene-2-sulfonamide], 0.001 to 0.01 µM. Consider `CCc1cnc(N2CCN(C)CC2)nc1Nc1cc(C2CC2)[nH]n1` [Compound 46, N-(5-cyclopropyl-1H-pyrazol-3-yl)-5-ethyl-2-(4-methylpiperazin-1-yl)-pyrimidin-4-amine], for which the Ki was over 4 µM. Turning to `CNS(=O)(=O)c1ccc(-c2nccc(Nc3cc(C4CC4)[nH]n3)n2)s1` [Compound 48], the Ki is 0.001 to 0.01 µM. Regarding `C#Cc1cnc(-c2ccc(C(O)C(=O)O)s2)nc1Nc1cc(C2CC2)[nH]n1` (stereo not drawn) [Compound 231, 2-[5-[4-[(5-cyclopropyl-1H-pyrazol-3-yl)amino]-5-ethynyl-pyrimidin-2-yl]-2-thienyl]-2-hydroxy-acetic acid], the Ki was in the range of 0.05 to 0.1 µM.

`CC(C)(C)NS(=O)(=O)C/C=C/c1cccc(Nc2cc(C3CC3)[nH]n2)n1` [Compound 269, 3-[6-[(5-cyclopropyl-1H-pyrazol-3-yl)amino]-2-pyridyl]-N-tert-butyl-prop-2-ene-1-sulfonamide]: the Ki is 0.1 to 0.5 µM. For the compound `CC(=O)c1ccc(-c2ncc(F)c(Nc3cc(C4CC4)[nH]n3)n2)s1` [Compound 137, 1-(5-(4-(5-cyclopropyl-1H-pyrazol-3-ylamino)-5-fluoropyrimidin-2-yl)thiophen-2-yl)ethanone], the Ki was in the range of 0.01 to 0.05 µM. As for `C=Cc1cnc(-c2ccc(S(N)(=O)=O)s2)nc1Nc1cc(C2CC2)[nH]n1` [Compound 209, 5-(4-(5-Cyclopropyl-1H-pyrazol-3-ylamino)-5-vinylpyrimidin-2-yl)thiophene-2-sulfonamide], the inhibition constant (Ki) was 0.001 to 0.01 µM. Still for that read-out and setting: the same measure for `C#Cc1cnc(-c2ccc(S(C)(=O)=O)s2)nc1Nc1cc(C2CC2)[nH]n1` [Compound 255, N-(5-cyclopropyl-4H-pyrazol-3-yl)-5-ethynyl-2-(5-(methylsulfonyl)thiophen-2-yl)pyrimidin-4-amine]: 0.001 to 0.01 µM; for `Nc1ccc(-c2ccc(S(N)(=O)=O)s2)nc1Nc1cc(C2CC2)n[nH]1` [Compound 276, 5-[5-amino-6-[(5-cyclopropyl-2H-pyrazol-3-yl)amino]-2-pyridyl]thiophene-2-sulfonamide]: 0.001 to 0.01 µM. `O=C(O)C(O)c1ccc(-c2ncc(Cl)c(Nc3cc(C4CC4)[nH]n3)n2)s1` (stereo not drawn) [Compound 219, 2-(5-(5-chloro-4-(5-cyclopropyl-1H-pyrazol-3-ylamino)pyrimidin-2-yl)thiophen-2-yl)-2-hydroxyacetic acid]: the Ki fell in the range of 0.1 to 0.5 µM.

Consider `C#Cc1cnc(-c2ccc(C(=O)C(=O)OCC)s2)nc1Nc1cc(C2CC2)[nH]n1` [Compound 202, ethyl 2-[5-[4-[(5-cyclopropyl-1H-pyrazol-3-yl)amino]-5-ethynyl-pyrimidin-2-yl]-2-thienyl]-2-oxo-acetate], for which the inhibition constant Ki is 0.01 to 0.05 µM.

`C[S+]([O-])c1ccc(-c2ncc(Cl)c(Nc3cc(C4CC4)[nH]n3)n2)s1` (stereo not drawn) [Compound 264, 5-chloro-N-(5-cyclopropyl-1H-pyrazol-3-yl)-2-(5-methylsulfinyl-2-thienyl)-pyrimidin-4-amine]: the Ki fell in the range of 0.001 to 0.01 µM.

On to `CC#Cc1cnc(-c2ccccc2)nc1Nc1cc(C2CC2)n[nH]1` [Compound 9, N-(5-cyclopropyl-1H-pyrazol-3-yl)-2-phenyl-5-(prop-1-ynyl)pyrimidin-4-amine], for which the Ki is over 4 µM.

In the case of `Cc1nc(-c2ncc(Cl)c(Nc3cc(C4CC4)[nH]n3)n2)sc1C(C)O` (stereo not drawn) [Compound 296, 1-(2-(5-chloro-4-(5-cyclopropyl-1H-pyrazol-3-ylamino)pyrimidin-2-yl)-4-methylthiazol-5-yl)ethanol], the Ki was 0.1 to 0.5 µM. Same read-out and setting: with `C#Cc1cnc(N2CCCCC2C(=O)O)nc1Nc1cc(C2CC2)n[nH]1` (stereo not drawn) [Compound 245, 1-[4-[(5-cyclopropyl-2H-pyrazol-3-yl)amino]-5-ethynyl-pyrimidin-2-yl]piperidine-2-carboxylic acid] the figure was over 4 µM; with `CC(C)(C)NS(=O)(=O)c1ccc(-c2ncc(/C=C/CO)c(Nc3cc(C4CC4)[nH]n3)n2)s1` [Compound 218, (E)-N-tert-butyl-5-(4-(5-cyclopropyl-1H-pyrazol-3-ylamino)-5-(3-hydroxyprop-1-enyl)pyrimidin-2-yl)thiophene-2-sulfonamide], 0.05 to 0.1 µM. Regarding `NS(=O)(=O)c1ccc(-c2nc(Nc3cc(C4CC4)n[nH]3)cc(C3CC3)n2)s1` [Compound 298, 5-(4-cyclopropyl-6-(3-cyclopropyl-1H-pyrazol-5-ylamino)pyrimidin-2-yl)thiophene-2-sulfonamide], the Ki was 0.05 to 0.1 µM.

In the case of `NS(=O)(=O)c1ccc(-c2ncc(C(=O)O)c(Nc3cc(C4CC4)[nH]n3)n2)s1` [Compound 179, 4-(5-cyclopropyl-1H-pyrazol-3-ylamino)-2-(5-sulfamoylthiophen-2-yl)pyrimidine-5-carboxylic acid], the Ki lay in the range of 0.5 to 1 µM. Same read-out and setting: with `N#Cc1ccc(-c2ncc(Br)c(Nc3cc(C4CC4)[nH]n3)n2)s1` [Compound 176, 5-[5-bromo-4-[(5-cyclopropyl-1H-pyrazol-3-yl)amino]-pyrimidin-2-yl]thiophene-2-carbonitrile] the figure was 0.001 to 0.01 µM. For `CC(C)(C)OC(=O)Nc1ccc(-c2ncc(Cl)c(Nc3cc(C4CC4)[nH]n3)n2)s1` [Compound 324, tert-butyl [[5-[5-chloro-4-[(5-cyclopropyl-1H-pyrazol-3-yl)amino]-pyrimidin-2-yl]-2-thienyl]amino]formate], the Ki was in the range of 0.1 to 0.5 µM. The same measure, in the same setting: the same measure for `COCc1cnc(N2CCN(C)CC2)nc1Nc1cc(C2CC2)[nH]n1` [Compound 69, N-(5-cyclopropyl-1H-pyrazol-3-yl)-5-(methoxymethyl)-2-(4-methylpiperazin-1-yl)-pyrimidin-4-amine]: over 4 µM.
